Assay results reported in patent US20180042941A1, “CABAZITAXEL AND ITS USE FOR TREATING METASTATIC PROSTATE CANCERS” (AVENTIS PHARMA S.A., priority 2013, published 2018).

Columns and labels:
tubulin = details: resulting in inhibition of microtubule depolymerization and tumor cell proliferation; cited from earlier work
[1] = system: tumor models poorly or not sensitive to chemotherapy, including taxanes; details: cited from earlier work
[2] = system: patients treated with cabazitaxel; details: cited from earlier work
[3] = system: patient with metastatic prostate cancer; assay: case reports of patients treated with cabazitaxel in combination with prednisone or prednisolone (adverse events); details: for WBC level: units not provided
Experimental: This example relates to the treatment of a patient with metastatic prostate cancer, according the following dosage: cabazitaxel (25 mg/m^2)+prednisone 10 mg daily+budesonide (9 mg daily).
This example relates to a patient (with prostate carcinoma) who initiated treatment with study drug cabazitaxel (20 mg/m^2) and prednisone (10 mg) (cycle 1).
This example relates to the treatment of a patient with a metastatic carcinoma of the prostate, according the following dosage: cabazitaxel 20 mg/m^2 intravenously (day 1) every 3 weeks and prednisone 10 mg PO daily, from day 1 continuously.
The treatment was as follows: cabazitaxel 20 mg/m^2 on day 1 every 3 weeks in combination with prednisone/prednisolone.
The following treatment was followed: cabazitaxel 25 mg/m^2 on day 1 every 3 weeks in combination with prednisone/prednisolone.
The dosage regimen was as follows: cabazitaxel 25 mg/m^2 intravenous infusion over 1 hour on day 1 of each 3 week cycle as well as oral prednisone/prednisolone 10 mg daily.
The following treatment was applied: cabazitaxel 20 mg/m^2 intravenously every 3 weeks, in combination with oral prednisone or prednisolone 10 mg daily.
This example relates to a patient with metastatic prostate cancer. The following treatment was followed: cabazitaxel 25 mg/m^2 intravenously (day 1) every 3 weeks and prednisone 10 mg PO daily, from day 1 continuously.
This patient was treated with cabazitaxel 20 mg/m^2 on day 1 every 3 weeks in combination with prednisone/prednisolone.
The following therapy dosage was used: cabazitaxel 25 mg/m^2 intravenously (day 1) every 3 weeks, plus prednisone 10 mg orally daily.
The therapy was as follows: the patient received cabazitaxel 25 mg/m^2 intravenous infusion over 1 hour on day 1 of each 3 week cycle as well as oral prednisone/prednisolone 10 mg daily.
The following dosage regimen was used: cabazitaxel 25 mg/m^2 on day 1 every 3 weeks in combination with prednisone/prednisolone.
This example relates to a patient with metastatic castration resistant prostate cancer not pretreated with chemotherapy. The following therapy was applied: cabazitaxel 25 mg/m^2 intravenously (day 1) every 3 weeks. Prednisone 10 mg PO daily, from day 1 continuously.
This example relates to a patient with metastatic castration resistant prostate cancer not pretreated with chemotherapy, having the following therapy: cabazitaxel 25 mg/m^2 intravenously (day 1) every 3 weeks and prednisone 10 mg PO daily, from day 1 continuously.
This example relates to a patient with metastatic castration resistant prostate cancer not pre-treated with chemotherapy. The following therapy was applied: cabazitaxel 20 mg/m^2 intravenously (day 1) every 3 weeks, prednisone 10 mg PO daily, from day 1 continuously.
The following dosage regimen was applied: cabazitaxel 25 mg/m^2 intravenously every 3 weeks, in combination with oral prednisone or prednisolone 10 mg daily.
The therapy involved the administration of cabazitaxel on day 1 every 3 weeks in combination with prednisone.
The following therapy was applied: cabazitaxel 25 mg/m^2 on day 1 every 3 weeks in combination with prednisolone.
The following dosage regimen was applied: cabazitaxel 20 mg/m^2 intravenously (day 1) every 3 weeks and prednisone 10 mg PO daily, from day 1 continuously.
The following dosage regimen was applied: cabazitaxel 20 mg/m^2 on day 1 every 3 weeks in combination with prednisolone.
The following dosage regimen was applied: cabazitaxel 25 mg/m^2 on day 1 every 3 weeks in combination with prednisone.
The applied dosage regimen was as follows: cabazitaxel 25 mg/m^2 intravenous infusion over 1 hour on day 1 of each 3 week cycle as well as oral prednisone 10 mg daily.

[4] = Ex 3, cabazitaxel 25 mg/m^2 + prednisone + budesonide
[5] = Ex 5, cabazitaxel 20 mg/m^2 + prednisone, cycle 4, day 5
[6] = Ex 5, cabazitaxel 20 mg/m^2 + prednisone, during hospitalization
[7] = Ex 7, cabazitaxel 25 mg/m^2 + prednisone
[8] = Ex 7, cabazitaxel 25 mg/m^2 + prednisone, day 9 of first cycle
[9] = Ex 12, cabazitaxel 25 mg/m^2 + prednisone
[10] = Ex 16, cabazitaxel 25 mg/m^2 + prednisolone
[11] = Ex 16, cabazitaxel 25 mg/m^2 + prednisolone, five days after hospitalization
[12] = Ex 20, cabazitaxel 25 mg/m^2 + prednisolone, after intensive care
[13] = Ex 20, cabazitaxel 25 mg/m^2 + prednisolone, on admission

CO[C@H]1C(=O)[C@]2(C)[C@@H](OC)C[C@H]3OC[C@@]3(OC(C)=O)[C@H]2[C@H](OC(=O)c2ccccc2)[C@]2(O)C[C@H](OC(=O)[C@H](O)[C@@H](NC(=O)OC(C)(C)C)c3ccccc3)C(C)=C1C2(C)C [cabazitaxel, 4α-acetoxy-2α-benzoyloxy-5β,20-epoxy-1β-hydroxy-7β,10β-dimethoxy-9-oxo-11-taxen-13α-yl (2R,3S)-3-tert-butoxycarbonyl-amino-2-hydroxy-3-phenylpropionate]
action on tubulin (tubulin): binds to and stabilizes tubulin | activity in tumor models [1]: active | gastrointestinal adverse reactions reported [2]: Gastrointestinal (GI) hemorrhage and perforation, ileus, colitis, including fatal outcome | control fibrogastroscopy finding ([3]; Ex 1, cabazitaxel 20 mg/m^2 + prednisone, ten days after antisecretory and antiulcer therapy): atrophic gastritis | outcome of event ([3]; Ex 1, cabazitaxel 20 mg/m^2 + prednisone, ten days after onset of epigastric pain): fully recovered | adverse event complained of ([3]; Ex 1, patient, cabazitaxel 20 mg/m^2 every 3 weeks + prednisone 10 mg daily, 15th day of cycle 1): epigastric pain | fibrogastroduodenoscopy finding ([3]; Ex 1, patient, cabazitaxel 20 mg/m^2 every 3 weeks + prednisone 10 mg daily, two days after 15th day of cycle 1): acute ulcer in the small curvature | colonic spasm (grade) ([3]; Ex 2, cabazitaxel 20 mg/m^2 + prednisone, during 7th cycle): grade 2 to grade 1 | outcome of colitis ([3]; Ex 2, cabazitaxel 20 mg/m^2 + prednisone, three days later): recovered | colitis (grade) ([3]; Ex 2, patient, cabazitaxel 20 mg/m^2 every 3 weeks + prednisone 10 mg daily, 75 days after first, 6 days after most recent dose (cycle 4)): 3 | colitis (grade) [3, 4]: 2 | outcome of events [3, 4]: no more episodes of SVT or diarrhea | white blood cell (WBC) ([3]; Ex 3, cabazitaxel 25 mg/m^2 + prednisone + budesonide, 45 days after first dose, normal 4-10): 6.9 | haemoglobin ([3]; Ex 3, cabazitaxel 25 mg/m^2 + prednisone + budesonide, 45 days after first dose, normal 8.5-11): 7.3 | creatinine ([3]; Ex 3, cabazitaxel 25 mg/m^2 + prednisone + budesonide, 45 days after first dose, normal 60-110): 94 | supraventricular tachycardia with angina (grade) ([3]; Ex 3, cabazitaxel 25 mg/m^2 + prednisone + budesonide, 45 days after first, 3 days after most recent dose): 3 | sigmoidoscopy finding ([3]; Ex 3, cabazitaxel 25 mg/m^2 + prednisone + budesonide, six days later): severe colitis | diarrhea ([3]; Ex 3, patient, cabazitaxel 25 mg/m^2 + prednisone 10 mg daily + budesonide 9 mg daily, 43 days after first, 1 day after most recent dose): slight diarrhea | neutropenia ([3]; Ex 4, cabazitaxel 20 mg/m^2 + prednisone, during enterocolitis): no neutropenia | outcome of event ([3]; Ex 4, cabazitaxel 20 mg/m^2 + prednisone, three days later): recovered | enterocolitis (grade) ([3]; Ex 4, patient, cabazitaxel 20 mg/m^2 + prednisone 10 mg, 145 days after first, 7 days after most recent dose (cycle 7)): 3 | gastritis (grade) [3, 5]: 2 | nausea (grade) [3, 5]: 2 | WBC decrease (grade) [3, 6]: 3 | WBC level [3, 6]: 2720 | outcome of events ([3]; Ex 5, cabazitaxel 20 mg/m^2 + prednisone, leukopenia three days after corrective treatment, hypotension, nausea and gastritis one day later): recovered | WBC level ([3]; Ex 5, cabazitaxel 20 mg/m^2 + prednisone, on the day after): 1000 | hypotension (grade) ([3]; Ex 5, patient, cabazitaxel 20 mg/m^2 every 3 weeks + prednisone 10 mg daily, cycle 4, day 5): 2 | pneumonia (grade) ([3]; Ex 6, cabazitaxel 20 mg/m^2 + prednisone, day 7 of cycle 1): 4 | outcome ([3]; Ex 6, cabazitaxel 20 mg/m^2 + prednisone, one day later, due to paralytic ileus and pneumonia): died | paralytic ileus (grade) ([3]; Ex 6, patient, cabazitaxel 20 mg/m^2 every 3 weeks + prednisone, day 4 of cycle 1): 4 | time to recovery from colitis [3, 7]: 9 days | time to recovery from neutropenia [3, 7]: 5 days | diarrhea with blood in feces, number of episodes [3, 8]: more than 10 episodes | neutropenia (grade) [3, 8]: 4 | colitis (grade) ([3]; Ex 7, cabazitaxel 25 mg/m^2 + prednisone, neutropenic colitis, day 9 of first cycle): 3 | absolute neutrophil count ([3]; Ex 7, patient, cabazitaxel 25 mg/m^2 every 3 weeks + prednisone 10 mg, day 9 of first cycle): 0.01 | clostridium difficile infection (grade) ([3]; Ex 8, cabazitaxel 25 mg/m^2 + prednisone/prednisolone): 3 | neutropenia (grade) ([3]; Ex 8, cabazitaxel 25 mg/m^2 + prednisone/prednisolone, 5th day of cycle 1): 3 | outcome ([3]; Ex 8, cabazitaxel 25 mg/m^2 + prednisone/prednisolone, six days later): recovered | neutropenia (grade) ([3]; Ex 8, cabazitaxel 25 mg/m^2 + prednisone/prednisolone, two days later): 4 | diarrhea (grade) ([3]; Ex 8, patient, cabazitaxel 25 mg/m^2 every 3 weeks + prednisone/prednisolone 10 mg daily, 5th day of cycle 1): 2 | outcome ([3]; Ex 9, cabazitaxel 20 mg/m^2 + prednisolone, 5 days after initial hospitalization): death | neutrophil count ([3]; Ex 9, cabazitaxel 20 mg/m^2 + prednisolone, day following admission): 0.4 | neutropenic colitis (grade) ([3]; Ex 9, cabazitaxel 20 mg/m^2 + prednisolone, final diagnosis): 4 | diagnosis at hospitalization ([3]; Ex 9, patient, cabazitaxel 20 mg/m^2 every 3 weeks + prednisolone 10 mg daily, four days after second administration): acute bowel obstruction | neutropenic colitis (grade) ([3]; Ex 10, cabazitaxel 25 mg/m^2 + prednisone): 4 | neutrophil count ([3]; Ex 10, cabazitaxel 25 mg/m^2 + prednisone, one day later, normal 1.4-7.7): 1e+08 L⁻¹ | fever (grade) ([3]; Ex 10, cabazitaxel 25 mg/m^2 + prednisone, readmission two days after discharge): 1 | outcome of event ([3]; Ex 10, cabazitaxel 25 mg/m^2 + prednisone, three days after readmission): resolved | diarrhea (grade) ([3]; Ex 10, patient, cabazitaxel 25 mg/m^2 every 3 weeks + prednisone 10 mg daily, 7 days after first cycle): 2 | diagnosis ([3]; Ex 11, cabazitaxel 20 mg/m^2 + prednisone/prednisolone, nine days after last dose): Neutropenic infection (colitis) | platelet count ([3]; Ex 11, cabazitaxel 20 mg/m^2 + prednisone/prednisolone, nine days after last dose, NR 150×10^3-450×10^3): 93 ×10^3 cells/mm^3 | CRP ([3]; Ex 11, cabazitaxel 20 mg/m^2 + prednisone/prednisolone, nine days after last dose, NR <0.5): 0.39 mg/dL | neutrophils ([3]; Ex 11, cabazitaxel 20 mg/m^2 + prednisone/prednisolone, nine days after last dose, normal 1.7×10^3-8.0×10^3): 1.12 ×10^3 cells/mm^3 | outcome ([3]; Ex 11, cabazitaxel 20 mg/m^2 + prednisone/prednisolone, two days after admission): recovered | WBC ([3]; Ex 11, patient, cabazitaxel 20 mg/m^2 every 3 weeks + prednisone/prednisolone, nine days after last dose, normal 3.5×10^3-10.5×10^3): 2.41 ×10^3 cells/mm^3 | enterocolitis (grade) [3, 9]: 4 | febrile neutropenia (grade) [3, 9]: 4 | renal failure (grade) [3, 9]: 4 | septic shock (grade) [3, 9]: 4 | outcome ([3]; Ex 12, cabazitaxel 25 mg/m^2 + prednisone, 2 days after admission, septic shock secondary to neutropenic enterocolitis): expired | fever ([3]; Ex 12, cabazitaxel 25 mg/m^2 + prednisone, 13 days after first dose): 38.5 °C | lower abdominal pain (grade) ([3]; Ex 12, patient, cabazitaxel 25 mg/m^2 every 3 weeks + prednisone 10 mg daily, 13 days after first dose): 3 | outcome ([3]; Ex 13, cabazitaxel 25 mg/m^2 + prednisone/prednisolone, cause of death reported as progression of disease): died | diagnosis at hospitalization ([3]; Ex 13, patient, cabazitaxel 25 mg/m^2 every 3 weeks + prednisone/prednisolone 10 mg daily, ten days after first cycle): neutropenic enterocolitis and sepsis | outcome ([3]; Ex 14, cabazitaxel 25 mg/m^2 + prednisone, nine days after hospitalization): recovered | adverse event ([3]; Ex 14, patient, cabazitaxel 25 mg/m^2 every 3 weeks + prednisone, 232 days after first, 14 days after most recent dose (cycle 9)): neutropenic enteritis | outcome ([3]; Ex 15, cabazitaxel 25 mg/m^2 + prednisone, 4 days later): recovered | video coloscopy finding ([3]; Ex 15, cabazitaxel 25 mg/m^2 + prednisone, bacteriological tests later negative): probable infectious colitis | rectal bleeding (grade) ([3]; Ex 15, cabazitaxel 25 mg/m^2 + prednisone, cycle 6, 111 days after first, 6 days after last administration): 1 | diarrhea (grade) ([3]; Ex 15, patient, cabazitaxel 25 mg/m^2 every 3 weeks + prednisone 10 mg daily, 108 days after first administration): 1 | SAH (subarachnoid hemorrhage) (grade) [3, 10]: 2 | urinary tract infection (grade) [3, 10]: 3 | gastritis, final diagnosis (grade) ([3]; Ex 16, cabazitaxel 25 mg/m^2 + prednisolone, day 17 of cycle 1): 3 | DIC (grade) [3, 11]: 4 | INR [3, 11]: 1.6 | outcome of gastritis ([3]; Ex 16, cabazitaxel 25 mg/m^2 + prednisolone, three days later): recovered | ulcus ventriculi, initial suspicion (grade) ([3]; Ex 16, patient, cabazitaxel 25 mg/m^2 every 3 weeks + prednisolone 10 mg, day 17 of cycle 1): 3 | outcome ([3]; Ex 17, cabazitaxel 20 mg/m^2 + prednisone, seven days after hospitalization): recovered | adverse event (confirmed by emergency surgery) ([3]; Ex 17, patient, cabazitaxel 20 mg/m^2 every 3 weeks + prednisone 10 mg daily, 42 days after first, 21 days after most recent dose, life-threatening): perforation of ulcer | outcome of duodenal ulcers ([3]; Ex 18, cabazitaxel 25 mg/m^2 + prednisone or prednisolone): recovered | acute cystitis (grade) ([3]; Ex 18, cabazitaxel 25 mg/m^2 + prednisone or prednisolone, day 26 of cycle 1): 1 | duodenal ulcers (grade) ([3]; Ex 18, patient, cabazitaxel 25 mg/m^2 every 3 weeks + prednisone or prednisolone 10 mg daily, four days after day 16 of cycle 1): 1 | haematocrit ([3]; Ex 19, cabazitaxel + prednisone, 128 days after first dose, reference 42-52): 16.33% | digestive haemorrhage (grade) ([3]; Ex 19, cabazitaxel + prednisone, 128 days after first, 20 days after last dose, life threatening): 4 | outcome ([3]; Ex 19, cabazitaxel + prednisone, discharged 9 days after hospitalization): recovered | haemoglobin ([3]; Ex 19, patient, cabazitaxel every 3 weeks + prednisone, 128 days after first, 20 days after last dose, reference 13.0-16.0): 51.2 g/L | haematocrit [3, 12]: 19.5% | haemoglobin [3, 12]: 72 g/L | platelets [3, 12]: 142 ×10^9 | outcome ([3]; Ex 20, cabazitaxel 25 mg/m^2 + prednisolone, fifteen days after hospitalization): recovered | haematocrit [3, 13]: 19% | haemoglobin [3, 13]: 59 g/L | platelet ([3]; Ex 20, cabazitaxel 25 mg/m^2 + prednisolone, thirteen days after hospitalization, units not specified, 180-320 thousand in 1 mcl): 122 | intestinal haemorrhage (grade) ([3]; Ex 20, patient, cabazitaxel 25 mg/m^2 every 3 weeks + prednisolone, 17 days after first dose, life threatening): 4 | adverse event during hospital stay ([3]; Ex 21, cabazitaxel 20 mg/m^2 + prednisone): febrile neutropenia | outcome ([3]; Ex 21, cabazitaxel 20 mg/m^2 + prednisone, one day after discharge): recovered | small bowel obstruction (grade) ([3]; Ex 21, patient, cabazitaxel 20 mg/m^2 every 3 weeks + prednisone 10 mg daily, cycle 2, most likely secondary to adhesions): 4 | outcome ([3]; Ex 22, cabazitaxel 20 mg/m^2 + prednisolone, three days later, after laproscopy): recovered | small intestinal obstruction (grade) ([3]; Ex 22, patient, cabazitaxel 20 mg/m^2 every 3 weeks + prednisolone, cycle 9, 181 days after first, 13 days after most recent dose): 3 | general weakness (grade) ([3]; Ex 23, cabazitaxel 25 mg/m^2 + prednisone): 3 | red blood loss per anum (grade) ([3]; Ex 23, cabazitaxel 25 mg/m^2 + prednisone, 85 days after first, 1 day after most recent dose): 1 | outcome ([3]; Ex 23, cabazitaxel 25 mg/m^2 + prednisone, 117 days after first dose, due to disease progression): died | pathologic fracture lumbar spine 1 (grade) ([3]; Ex 23, cabazitaxel 25 mg/m^2 + prednisone, five days after day 95): 3 | outcome of red blood loss per anum and hematuria ([3]; Ex 23, cabazitaxel 25 mg/m^2 + prednisone, two days after hospitalization): recovered | hematuria (grade) ([3]; Ex 23, patient, cabazitaxel 25 mg/m^2 every 3 weeks + prednisone, 85 days after first, 1 day after most recent dose): 3 | outcome ([3]; Ex 24, cabazitaxel 25 mg/m^2 + prednisone, about a month after hospitalization, unknown cause, colitis ongoing): died | time to resolution of ileus ([3]; Ex 25, cabazitaxel 20 mg/m^2 + prednisone): 13 days | mechanical ileus due to unclear cause (grade) ([3]; Ex 25, cabazitaxel 20 mg/m^2 + prednisone, 215 days after first, 6 days after most recent dose): 2 | diagnosis ([3]; Ex 25, patient, cabazitaxel 20 mg/m^2 every 3 weeks + prednisone 10 mg daily, 214 days after first dose): ileus
